What was measured:
Conditions in all cases: main component drawn
S. aureus Newman [1] = test: fitness (endpoint OD595 vs no drug) (fraction); higher = more growth
In short: (§1)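 Bacterial growth was followed in 384-well plates seeded at OD595 0.01, with 30 µl per well, or 55 µl for S. pneumoniae, in TSB, LB Lennox or CY at 37 °C. OD595 was read every 30 min for 14 h, and each reading had the first reading subtracted as background. Fitness is the background-corrected optical density at entry into stationary phase divided by the robust mean of the no-drug control wells. This ratio is capped at 1.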

S. aureus DSM 20231 [2] = test: as above
In short: as §1

S. pneumoniae D39V = test: Bliss interaction score (quartile over a dose matrix) (fitness difference); higher = more antagonism (negative = synergy)
In short: (§2)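 Quartiles of the Bliss score were taken over technical, biological and donor/recipient replicates. That score is observed fitness minus the product of the single-drug fitness values, which were inferred from combination data. Fitness itself is OD595 at entry into stationary phase divided by the plate's robust no-drug mean, with a cap at 1.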

B. subtilis 168 = test: as above
In short: as §2

S. aureus Newman [3] = test: as above
In short: as §2

S. aureus DSM 20231 [4] = test: as above
In short: as §2
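For Bliss interaction score (quartile over a dose matrix) in this document: first quartile when negative (synergy) and third quartile when positive (antagonism).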

COc1ccc(C[C@H](N)C(=O)N[C@H]2[C@@H](O)[C@H](n3cnc4c(N(C)C)ncnc43)O[C@@H]2CO)cc1 [Puromycin] + CCCCCCCCCC(=O)N[C@@H]1[C@H]([C@@H]([C@H](O[C@H]1OC2=C3C=C4C=C2OC5=C(C=C(C=C5)[C@H]([C@H]6C(=O)N[C@@H](C7=C(C(=CC(=C7)O)OC8[C@H]([C@H]([C@@H]([C@H](O8)CO)O)O)O)C9=C(C=CC(=C9)[C@H](C(=O)N6)NC(=O)[C@@H]4NC(=O)[C@@H]1C2=CC(=CC(=C2)OC2=C(C=CC(=C2)[C@H](C(=O)N[C@H](CC2=CC(=C(O3)C=C2)Cl)C(=O)N1)N)O)O)O)C(=O)O)O[C@H]1[C@@H]([C@H]([C@@H]([C@H](O1)CO)O)O)NC(=O)C)Cl)CO)O)O [Teicoplanin]
fitness
Conditions	first compound 0.39 µg/mL	first compound 0.78 µg/mL	first compound 1.56 µg/mL
S. aureus DSM 20231 [2], partner 0.1562 µg/mL	0.895	0.997	0.982
S. aureus DSM 20231 [2], partner 0.3125 µg/mL	≥ 1	≥ 1	1
S. aureus DSM 20231 [2], partner 0.625 µg/mL	≥ 1	≥ 1	≥ 1
S. aureus Newman [1], partner 0.1562 µg/mL	≥ 1	≥ 1	≥ 1
S. aureus Newman [1], partner 0.3125 µg/mL	≥ 1	≥ 1	≥ 1
S. aureus Newman [1], partner 0.625 µg/mL	≥ 1	0.888	0.906

fitness, one replicate
Conditions	partner 0.1562 µg/mL	partner 0.3125 µg/mL	partner 0.62 µg/mL	partner 0.625 µg/mL	partner 1.24 µg/mL	partner 2.48 µg/mL
S. aureus DSM 20231 [2], first compound 3.12 µg/mL	0.94	≥ 1	–	≥ 1	–	–
S. aureus DSM 20231 [2], first compound 6.24 µg/mL	0.664	0.579	–	0.504	–	–
S. aureus Newman [1], first compound 0.39 µg/mL	–	–	0.761	–	0.754	0.457
S. aureus Newman [1], first compound 0.78 µg/mL	–	–	0.815	–	0.755	0.454
S. aureus Newman [1], first compound 1.56 µg/mL	–	–	0.79	–	0.76	0.403

Conditions	Bliss interaction score
B. subtilis 168	0.0835
S. aureus DSM 20231 [4]	-0.0344
S. aureus Newman [3]	0.0617
S. pneumoniae D39V	0.083

C[C@@H]1O[C@@H]1P(=O)(O)O [Fosfomycin] + CCCCCCCCCC(=O)N[C@@H]1[C@H]([C@@H]([C@H](O[C@H]1OC2=C3C=C4C=C2OC5=C(C=C(C=C5)[C@H]([C@H]6C(=O)N[C@@H](C7=C(C(=CC(=C7)O)OC8[C@H]([C@H]([C@@H]([C@H](O8)CO)O)O)O)C9=C(C=CC(=C9)[C@H](C(=O)N6)NC(=O)[C@@H]4NC(=O)[C@@H]1C2=CC(=CC(=C2)OC2=C(C=CC(=C2)[C@H](C(=O)N[C@H](CC2=CC(=C(O3)C=C2)Cl)C(=O)N1)N)O)O)O)C(=O)O)O[C@H]1[C@@H]([C@H]([C@@H]([C@H](O1)CO)O)O)NC(=O)C)Cl)CO)O)O [Teicoplanin]
fitness
Conditions	first compound 0.781 µg/mL	first compound 1.562 µg/mL	first compound 3.124 µg/mL
S. aureus DSM 20231 [2], partner 0.1562 µg/mL	0.863	0.698	0.538
S. aureus DSM 20231 [2], partner 0.3125 µg/mL	0.968	0.831	–
S. aureus DSM 20231 [2], partner 0.625 µg/mL	0.933	0.862	0.654
S. aureus Newman [1], partner 0.1562 µg/mL	0.58	0.525	0.127
S. aureus Newman [1], partner 0.3125 µg/mL	0.568	0.534	0.261
S. aureus Newman [1], partner 0.625 µg/mL	0.663	0.582	0.348

fitness, S. aureus Newman [1], one replicate
Conditions	first compound 0.781 µg/mL	first compound 1.562 µg/mL	first compound 3.124 µg/mL
partner 0.62 µg/mL	0.715	0.682	0.522
partner 1.24 µg/mL	0.646	0.616	0.472
partner 2.48 µg/mL	0.461	0.234	0.0834

Conditions	Bliss interaction score
B. subtilis 168	-0.078
S. aureus DSM 20231 [4]	0.154
S. aureus Newman [3]	0.177
S. pneumoniae D39V	0.065
